Results taken from publication PMC10147923, “Pain-causing stinging nettle toxins target TMEM233 to modulate NaV1.7 function” (Nature Communications, 2023).
Values joined by “and” are separate entries in the source; they are usually repeats but may differ in a detail not shown here. Equal entries are not always repeated. Where two headings read alike, the source gives them in different places. Positions of bridges follow the written chain, without caps; N, C: chain ends. Residues, ends and D or L forms follow the SMILES beside them.

How the values were obtained:
Cos-1 cells = test: Currents in untransfected Cos-1 cells; format: cell-based; conditions: ExTxA 1 µM, mean ± SEM, n = 6
Description: Whole-cell patch clamp experiments involving HEK293, COS-1, CHO, ND7/23, F11, SH-SY5Y and TE-671 cells were performed on a QPatch II automated electrophysiology platform (Sophion Bioscience, Ballerup, Denmark) as previously described. Cells at approximately 70–80% confluency were harvested from T75 flasks using TrypLE Express at 37 °C for 2–5 min and resuspended in DMEM with 25 mM HEPES (Sigma-Aldrich, NSW, Australia), 100 U/mL Penicillin-Streptomycin (Gibco) and 40 µg/mL trypsin inhibitor from Glycine max (soybean) (Sigma Aldrich) prior to recovery on a QStirrer (Sophion) for 30 min. 16-channel patch plates with a patch hole diameter of 1 μm and resistance of 2 ± 0.02 MΩ were used. Cell positioning and sealing parameters were as follows: positioning pressure −60 mbar, minimum seal resistance 0.1 GΩ, holding potential −100 mV, holding pressure −20 mbar. Whole-cell currents were filtered at 5 kHz and acquired at 25 kHz. Series resistance compensation was used and set to 70%.

[1] = test system: total NaV current in wild-type DRG neurons; test: Persistent NaV current, wild-type littermate DRG neurons; format: cell-based, mouse; conditions: ExTxA 30 nM; wildtype; mean ± SEM, n = 6
[2] = test system: total NaV current in Tmem233Cre/Cre DRG neurons; test: Persistent NaV current, Tmem233Cre/Cre DRG neurons; format: cell-based, mouse
hNaV1.5 = test: Persistent current, HEK293-hNaV1.5/β1; format: cell-based, human; conditions: ExTxA 1 µM
NaV1.7/TMEM233 = NaV1.7/TMEM233 (Homo sapiens, UniProt B4DJY2+Q15858); format: cell-based
[3] = test system: NaV currents in SH-SY5Y cells; test: Persistent current, SH-SY5Y cells; format: cell-based, human; conditions: ExTxA 1 µM
[4] = test system: NaV1.7 endogenously expressed in TE-671 cells; test: Persistent NaV current, TE-671 cells (automated patch clamp); format: cell-based
HEK293-NaV1.7 cells = format: cell-based, human; conditions: ExTxA 1 µM; for ΔF/F in NaV1.7 HEK293: mean, n = 3
Description: HEK293-NaV1.7 cells were transfected with TMEM233, CRELD1, LMAN2L, MMGT1, RNF121 and STT3B and co-transfected with five plasmids coding for the Glycosylphosphatidylinositol (GPI) complex (GPAA1, PIGK, PIGS, PIGU, PIGT) using Lipofectamine 2000. After 24 h, transfected cells were harvested and plated at a density of 10,000–15,000 cells per well on black-walled 384-well imaging plates. Plated cells were cultured for a further 24 h at 37 °C and 5% CO2. FLIPR (Fluorescent Imaging Plate Reader) Red membrane potential assay dye (Molecular Devices, California, USA) was diluted in physiological salt solution according to the manufacturer’s instructions (PSS, in mM: NaCl 140, glucose 11.5, HEPES 10, KCl 5.9, MgCl2 1.4, NaH2PO4 1.2, NaHCO3 5, CaCl2 1.8, pH 7.4). Growth medium was removed from the plate and replaced with 20 µL of FLIPR Red membrane potential assay dye per well and incubated in the dark at 37 °C for 60 min. […] Fluorescence responses to ExTxA were computed as the maximum change in fluorescence over baseline (ΔF/F0) using ScreenWorks (Molecular Devices, Version 5.1.2.94).

wild-type C57BL/6 mice = test: Nocifensive behaviors after intraplantar injection, wild-type mice; format: in vivo, mouse; conditions: wt
Description: Nocifensive responses to intraplantar administration of ExTxA (5–10 nM) were assessed as previously described. In brief, ExTxA was diluted in sterile saline/0.1% BSA and administered by an intraplantar injection (40 μL) into a single hind paw of Tmem233^Cre/Cre, NaV1.7^Advill and wild-type littermate controls. Pain behaviors, consisting of paw licks or flinches, were counted from video recordings by a blinded investigator for up to 60 min following injection.

[5] = test system: NaV currents in F11 cells; test: Persistent current, F11 cells; format: cell-based; conditions: ExTxA 1 µM; individual cells

CC[C@H](C)[C@@H]1NC(=O)[C@H](CCCNC(=N)N)NC(=O)[C@H](Cc2ccccc2)NC(=O)[C@H](CC(C)C)NC(=O)[C@H](CO)NC(=O)[C@@H]2CSSC[C@@H]3NC(=O)[C@H]([C@@H](C)O)NC(=O)[C@H](CSSC[C@H](NC(=O)[C@H](CCCNC(=N)N)NC(=O)[C@@H]4CCCN4C(=O)[C@@H](N)CC(C)C)C(=O)N[C@@H](CC(=O)O)C(=O)N[C@@H](CO)C(=O)N4CCC[C@H]4C(=O)N[C@@H](Cc4ccccc4)C(=O)N2)NC(=O)[C@H](CCCCN)NC(=O)[C@H](CC(=O)O)NC(=O)CNC(=O)[C@H](CSSC[C@@H](C(=O)N[C@H](C(=O)N2CCC[C@H]2C(=O)N[C@@H](CC(=O)O)C(=O)N[C@H](C(=O)O)C(C)C)C(C)C)NC(=O)[C@H](CC(C)C)NC(=O)CNC(=O)[C@H](Cc2ccccc2)NC(=O)[C@H]([C@@H](C)CC)NC(=O)[C@@H]2CCCN2C(=O)[C@H](CC(C)C)NC(=O)[C@@H]2CCCN2C(=O)[C@H](C(C)C)NC3=O)NC(=O)[C@H](CC(C)C)NC(=O)CNC1=O [ExTxA, excelsatoxin A] (H-LPRCDSPFCSLFRIGLCGDKCTCVPLPIFGLCVPDV-OH; disulfide 4-21, 9-23, 17-32)
ExTxA-induced persistent current (Cos-1 cells): -2.019 ± 5.908 pA | ExTxA-induced persistent current (I40ms/Ipeak; nA) in DRG neurons [1]: 0.573 ± 0.086 | persistent current, Mean diff, A2 - B2 [2]: 0.4591 | ExTxA-induced persistent current (I40ms/Ipeak; nA) in DRG neurons ([2]; ExTxA 30 nM, Tmem233Cre KO, mean ± SEM, n = 7): 0.114 ± 0.04 | persistent current (I40 ms/Ipeak) (hNaV1.5; individual cells): 0.001512 and 0.003695 and 0.000623 and -0.00019 and 0.001997 and -0.00321 and -0.00096 and -7.2e-5 and 0.000901 and 0.000208 and 0.000397 | Δ persistent current (I40 ms/Ipeak; buffer cf. ExTxA) (hNaV1.5; mean): 0.0004 ± 0.0005 and 0.0003926 | Best-fit parameter Bottom (NaV1.7/TMEM233): 0.0729 | Best-fit parameter Hill slope (NaV1.7/TMEM233): 1.156 | Best-fit parameter Top (NaV1.7/TMEM233): 0.7692 | Top (NaV1.7/TMEM233): 0.7845 | persistent current, Predicted (LS) mean diff. (NaV1.7/TMEM233): -0.5401 | potency with TMEM233 versus PRRT2 or TRARG1 (NaV1.7/TMEM233): significantly more potent when co-expressed with TMEM233 | effect on inactivation, toxin in extracellular solution (NaV1.7/TMEM233; ExTxA 100 nM in ECS): robustly inhibited inactivation | effect on inactivation, toxin in intracellular solution (NaV1.7/TMEM233; ExTxA 100 nM in ICS): did not affect inactivation | Difference between means (D - C), TMEM233 minus control (NaV1.7/TMEM233; ExTxA 1 µM): -1468 ± 228.9 pA | LogEC50 (NaV1.7/TMEM233; Nav1.7/TMEM233, 95% CI -8.367 to -8.102, Fig 4g): -8.24 | HillSlope (NaV1.7/TMEM233; Nav1.7/TMEM233, Fig 4g): 0.9284 | persistent current (I40 ms/Ipeak) ([3]; individual cells): -0.02037 and -0.04756 and 0.0447 and 0.01578 and 0.03746 | Δ persistent current (I40 ms/Ipeak; buffer cf. ExTxA) ([3]; mean): 0.006 ± 0.0175 and 0.006003 | ExTxA-induced persistent current (I40 ms/Ipeak; nA) [4]: 0.8135 | persistent current (I40 ms/Ipeak) [4]: 0.8735 and 0.8209 and 0.7837 and 0.8022 and 0.7553 and 0.8064 and 0.8529 | Mean Diff. of persistent current, Buffer vs. ExTxA ([4]; ExTxA 100 nM): -0.2502 | TE-671 persistent current (I40 ms/Ipeak) ([4]; ExTxA 100 nM, individual cells): 0.226 and 0.2237 and 0.255 and 0.3482 and 0.2794 and 0.2574 and 0.2313 and 0.3524 | TE-671 persistent current (I40 ms/Ipeak) ([4]; ExTxA 100 nM, mean, n = 8): 0.272 ± 0.018 and 0.2717 | persistent current (I40 ms/Ipeak) ([4]; ExTxA 1 µM, individual cells): 0.6558 and 0.8078 and 0.6143 and 0.6966 and 0.7266 and 0.5751 and 0.7653 and 0.7674 and 0.8038 and 0.7341 and 0.767 | Δ persistent current (I40 ms/Ipeak; buffer cf. ExTxA) ([4]; ExTxA 1 µM, mean): 0.719 ± 0.0230 and 0.7194 | ExTxA-induced persistent current (I40 ms/Ipeak; nA) ([4]; ExTxA 1 µM, wildtype TE-671 (Fig. 3d), mean, n = 7): 0.81 ± 0.015 | ΔF/F in NaV1.7 HEK293 (HEK293-NaV1.7 cells; Control (untransfected NaV1.7)): 0.016 ± 0.013 and 0.01598 | DF/F (HEK293-NaV1.7 cells; GPAA1+PIG K, S, T, U, replicate 1): -0.0084 | DF/F (HEK293-NaV1.7 cells; GPAA1+PIG K, S, T, U, replicate 2): -0.00023 | DF/F (HEK293-NaV1.7 cells; GPAA1+PIG K, S, T, U, replicate 3): -0.01147 | ΔF/F in NaV1.7 HEK293 (HEK293-NaV1.7 cells; Lman2L): 0.014 ± 0.0048 and 0.01413 | DF/F (HEK293-NaV1.7 cells; Lman2L, replicate 1): 0.02361 | DF/F (HEK293-NaV1.7 cells; Lman2L, replicate 2): 0.01087 | DF/F (HEK293-NaV1.7 cells; Lman2L, replicate 3): 0.007914 | DF/F (HEK293-NaV1.7 cells; Mmgt1, replicate 1): -0.00761 | DF/F (HEK293-NaV1.7 cells; Mmgt1, replicate 2): -0.00711 | DF/F (HEK293-NaV1.7 cells; Mmgt1, replicate 3): -0.00296 | DF/F (HEK293-NaV1.7 cells; RNF121, replicate 1): -0.01721 | DF/F (HEK293-NaV1.7 cells; RNF121, replicate 2): -0.01119 | DF/F (HEK293-NaV1.7 cells; RNF121, replicate 3): 0.007423 | ΔF/F in NaV1.7 HEK293 (HEK293-NaV1.7 cells; Stt3b): 0.013 ± 0.00098 and 0.01262 | DF/F (HEK293-NaV1.7 cells; Stt3b, replicate 1): 0.01077 | DF/F (HEK293-NaV1.7 cells; Stt3b, replicate 2): 0.013 | DF/F (HEK293-NaV1.7 cells; Stt3b, replicate 3): 0.01408 | DF/F (HEK293-NaV1.7 cells; Untransfected Nav1.7, replicate 1): 0.03099 | DF/F (HEK293-NaV1.7 cells; Untransfected Nav1.7, replicate 2): -0.01092 | DF/F (HEK293-NaV1.7 cells; Untransfected Nav1.7, replicate 3): 0.02788 | cumulative flinches (60 min) (wild-type C57BL/6 mice; i.pl. ExTxA 10 nM, 40 μL, mean, n = 4): 319.3 ± 21.9 and 319.3 | cumulative flinches (60 min) (wild-type C57BL/6 mice; i.pl. ExTxA 10 nM, individual animals): 318 and 332 and 366 and 261 | ExTxA-induced pain behaviours (cumulative paw licks and flinches over 40 min) (wild-type C57BL/6 mice; i.pl. ExTxA 10 nM, mean ± SEM, n = 17): 234.2 ± 27.7 | nocifensive behaviors, 0-40 min combined (Fig. 3g) (wild-type C57BL/6 mice; 0-40 min, individual animals, one line each (n = 17)): 186 and 191 and 216 and 226 and 100 and 220 and 228 and 281 and 150 and 168 and 177 and 96 and 381 and 537 and 153 | nocifensive behaviors, 0-40 min combined, mean (Fig. 3g) (wild-type C57BL/6 mice; 0-40 min, mean, n = 17): 234.2 | toxicity to TE-671 cells, ExTxA alone (TE-671 cells; ExTxA 1 µM): did not cause visible toxicity | toxicity to TE-671 cells, with veratridine and ouabain (TE-671 cells; ExTxA 1 µM + veratridine 5 µM + ouabain 20 nM): cell death | persistent current (I40 ms/Ipeak) [5]: 0.004557 and -0.00296 and -0.00917 and -0.00017 and -0.00072 and 0.02041
